{"source": "patent US8536332B2", "about": "“Modulating signal transduction pathways with substituted pyridol [2,3-b] pyrazines” (Aeterna Zentaris GmbH, priority 2007, dated 2013)", "data": [{"smiles": "COc1cc(-c2ccc3ncc(NC(=O)Nc4ccccc4)nc3n2)ccc1O", "note": "[Compound 3, 1-[6-(4-Hydroxy-3-methoxy-phenyl)-pyrido[2,3-b]pyrazin-3-yl]-3-phenyl-urea]", "values": [{"measurement": "melting point", "result": 240, "unit": "°C"}]}, {"smiles": "CCNC(=S)Nc1ccc2ncc(Nc3ccc(OC)c(Cl)c3)nc2n1", "note": "[Compound 159, 1-[3-(3-Chloro-4-methoxy-phenylamino)-pyrido[2,3-b]pyrazin-6-yl]-3-ethyl-thiourea]", "values": [{"measurement": "melting point", "result": 276, "unit": "°C"}]}, {"smiles": "CCNC(=O)Nc1ccc2ncc(-c3ccccc3OCC)nc2n1", "note": "[Compound 102, 1-[3-(2-Ethoxy-phenyl)-pyrido[2,3-b]pyrazin-6-yl]-3-ethyl-urea]", "values": [{"measurement": "melting point", "result": "220 to 222", "unit": "°C"}]}, {"smiles": "CCCNC(=O)Nc1cnc2ccc(-c3ccc(O)c(OC)c3)nc2n1", "note": "[Compound 16, 1-[6-(4-Hydroxy-3-methoxy-phenyl)-pyrido[2,3-b]pyrazin-3-yl]-3-propyl-urea]", "values": [{"measurement": "melting point", "result": "220 to 222", "unit": "°C"}]}, {"smiles": "COc1cc(-c2ccc3ncc(NC(=O)NCCc4ccccc4)nc3n2)ccc1O", "note": "[Compound 26, 1-[6-(4-Hydroxy-3-methoxy-phenyl)-pyrido[2,3-b]pyrazin-3-yl]-3-phenethyl-urea]", "values": [{"measurement": "melting point", "result": "235 to 237", "unit": "°C"}]}, {"smiles": "CCOc1ccc(NC(=O)Nc2cnc3ccc(-c4ccc(O)c(OC)c4)nc3n2)cc1", "note": "[Compound 624, 1-(4-Ethoxy-phenyl)-3-[6-(4-hydroxy-3-methoxy-phenyl)-pyrido[2,3-b]pyrazin-3-yl]-urea]", "values": [{"measurement": "melting point", "result": "242 to 245", "unit": "°C"}]}, {"smiles": "CCNC(=O)Nc1cnc2ccc(Nc3cccc(CC(=O)O)c3)nc2n1", "note": "[Compound 194, {3-[3-(3-Ethyl-ureido)-pyrido[2,3-b]pyrazin-6-ylamino]-phenyl}-acetic acid]", "values": [{"measurement": "melting point", "result": "305 to 308", "unit": "°C"}]}, {"smiles": "CCNC(=S)Nc1ccc2ncc(Nc3cc(Cl)c(O)c(Cl)c3)nc2n1", "note": "[Compound 166, 1-[3-(3,5-Dichloro-4-hydroxy-phenylamino)-pyrido[2,3-b]pyrazin-6-yl]-3-ethyl-thiourea]", "values": [{"measurement": "melting point", "result": 278, "unit": "°C"}]}, {"smiles": "CCNC(=O)Nc1ccc2ncc(-c3cccnc3OC(C)C)nc2n1", "note": "[Compound 51, 1-Ethyl-3-[3-(2-isopropoxy-pyridin-3-yl)-pyrido[2,3-b]pyrazin-6-yl]-urea]", "values": [{"measurement": "melting point", "result": "231 to 232", "unit": "°C"}]}, {"smiles": "COc1ccc(NC(=O)Nc2cnc3ccc(-c4ccc(O)c(OC)c4)nc3n2)cc1", "note": "[Compound 625, 1-(4-Methoxy-phenyl)-3-[6-(4-hydroxy-3-methoxy-phenyl)-pyrido[2,3-b]pyrazin-3-yl]-urea]", "values": [{"measurement": "melting point", "result": "235 to 238", "unit": "°C"}]}, {"smiles": "CCNC(=O)Nc1cnc2ccc(N3CCN(C)CC3)nc2n1", "note": "[Compound 227, 1-Ethyl-3-[6-(4-methyl-piperazin-1-yl)-pyrido[2,3-b]pyrazin-3-yl]-urea]", "values": [{"measurement": "melting point", "result": "214 to 216", "unit": "°C"}]}, {"smiles": "CCNC(=S)Nc1cnc2ccc(Nc3ccc(OC)c(Cl)c3)nc2n1", "note": "[Compound 202, 1-[6-(3-Chloro-4-methoxy-phenylamino)-pyrido[2,3-b]pyrazin-3-yl]-3-ethyl-thiourea]", "values": [{"measurement": "melting point", "result": 225, "unit": "°C"}]}, {"smiles": "CCNC(=S)Nc1ccc2ncc(Nc3cc(Cl)cc(Cl)c3)nc2n1", "note": "[Compound 443, 1-[3-(3,5-Dichloro-phenylamino)-pyrido[2,3-b]pyrazin-6-yl]-3-ethyl-thiourea]", "values": [{"measurement": "melting point", "result": 270, "unit": "°C"}]}, {"smiles": "CCNC(=S)Nc1cnc2ccc(-c3ccc(C)cc3)nc2n1", "note": "[Compound 651, 1-Ethyl-3-(6-p-tolyl-pyrido[2,3-b]pyrazin-3-yl)-thiourea]", "values": [{"measurement": "melting point", "result": "230 to 231", "unit": "°C"}]}, {"smiles": "CCNC(=O)Nc1ccc2ncc(-c3c(F)cccc3OC)nc2n1", "note": "[Compound 137]", "values": [{"measurement": "melting point", "result": "236 to 239", "unit": "°C"}]}, {"smiles": "CCNC(=O)Nc1cnc2ccc(-c3cnn(C)c3)nc2n1", "note": "[Compound 10, 1-Ethyl-3-[6-(1-methyl-1H-pyrazol-4-yl)-pyrido[2,3-b]pyrazin-3-yl]urea]", "values": [{"measurement": "melting point", "result": 211, "unit": "°C"}]}, {"smiles": "CCNC(=O)Nc1ccc2ncc(Nc3ccc(C(=O)N4CCOCC4)cc3)nc2n1", "note": "[Compound 48, 1-Ethyl-3-{3-[4-(morpholine-4-carbonyl)-phenylamino]-pyrido[2,3-b]-pyrazin-6-yl}-urea]", "values": [{"measurement": "melting point", "result": "276 to 279", "unit": "°C"}]}, {"smiles": "CCNC(=O)Nc1ccc2ncc(Nc3cccc(Cl)c3)nc2n1", "note": "[Compound 167, 1-[3-(3-Chloro-phenylamino)-pyrido[2,3-b]pyrazin-6-yl]-3-ethyl-urea]", "values": [{"measurement": "melting point", "result": 253, "unit": "°C"}]}, {"smiles": "CCNC(=O)Nc1cnc2ccc(NCc3ccccc3)nc2n1", "note": "[Compound 239, 1-(6-Benzylamino-pyrido[2,3-b]pyrazin-3-yl)-3-ethyl-urea]", "values": [{"measurement": "melting point", "result": "211 to 213", "unit": "°C"}]}, {"smiles": "CCNC(=S)Nc1ccc2ncc(-c3cc(C)c(O)c(C)c3)nc2n1", "note": "[Compound 125, 1-Ethyl-3-[3-(4-hydroxy-3,5-dimethyl-phenyl)-pyrido[2,3-b]pyrazin-6-yl]-thiourea]", "values": [{"measurement": "melting point", "result": 244, "unit": "°C"}]}, {"smiles": "CCNC(=O)Nc1ccc2ncc(-c3cnn(Cc4ccccc4)c3)nc2n1", "note": "[Compound 58, 1-[3-(1-Benzyl-1H-pyrazol-4-yl)-pyrido[2,3-b]pyrazin-6-yl]-3-ethyl-urea]", "values": [{"measurement": "melting point", "result": "258 to 261", "unit": "°C"}]}, {"smiles": "CCNC(=O)Nc1ccc2ncc(-c3ccccc3OCc3ccccc3)nc2n1", "note": "[Compound 57, 1-[3-(2-Benzyloxy-phenyl)-pyrido[2,3-b]pyrazin-6-yl]-3-ethyl-urea]", "values": [{"measurement": "melting point", "result": "181 to 183", "unit": "°C"}]}, {"smiles": "CCNC(=S)Nc1cnc2ccc(Cl)nc2n1", "note": "[Example 2, 1-(6-Chloro-pyrido[2,3-b]pyrazin-3-yl)-3-ethyl-thiourea]", "values": [{"measurement": "melting point", "result": 215, "unit": "°C"}]}, {"smiles": "Cc1noc(C)c1NC(=O)Nc1cnc2ccc(-c3cc(Cl)c(O)c(Cl)c3)nc2n1", "note": "[Compound 562, 1-[6-(3,5-Dichloro-4-hydroxy-phenyl)-pyrido[2,3-b]pyrazin-3-yl]-3-(3,5-dimethyl-isoxazol-4-yl)-urea]", "values": [{"measurement": "melting point", "result": "257 to 260", "unit": "°C"}]}, {"smiles": "CCNC(=O)Nc1cnc2ccc(-c3ccncc3)nc2n1", "note": "[Compound 7, 1-Ethyl-3-(6-pyridin-4-yl-pyrido[2,3-b]pyrazin-3-yl)-urea]", "values": [{"measurement": "melting point", "result": 211, "unit": "°C"}]}, {"smiles": "CCNC(=O)Nc1ccc2ncc(-c3ccc(O)c(Br)c3)nc2n1", "note": "[Compound 47, 1-[3-(3-Bromo-4-hydroxy-phenyl)-pyrido[2,3-b]pyrazin-6-yl]-3-ethyl-urea]", "values": [{"measurement": "melting point", "result": "337 to 339", "unit": "°C"}]}, {"smiles": "CCNC(=O)Nc1cnc2ccc(-c3ccc(Cl)cc3)nc2n1", "note": "[Compound 6, 1-[6-(4-Chloro-phenyl)-pyrido[2,3-b]pyrazin-3-yl]-3-ethyl-urea]", "values": [{"measurement": "melting point", "result": 276, "unit": "°C"}]}, {"smiles": "CCNC(=O)Nc1ccc2ncc(-c3cc4ccccc4[nH]3)nc2n1", "note": "[Compound 70, 1-Ethyl-3-[3-(1H-indol-2-yl)-pyrido[2,3-b]pyrazin-6-yl]-urea]", "values": [{"measurement": "melting point", "result": "> 300", "unit": "°C"}]}, {"smiles": "CCNC(=O)Nc1ccc2ncc(Nc3cccc(C(C)=O)c3)nc2n1", "note": "[Compound 170, 1-[3-(3-Acetyl-phenylamino)-pyrido[2,3-b]pyrazin-6-yl]-3-ethyl-urea]", "values": [{"measurement": "melting point", "result": 243, "unit": "°C"}]}, {"smiles": "CCNC(=O)Nc1ccc2ncc(-c3ccc(NC(=O)OCCOCCOCCOC)c(OC)c3)nc2n1", "note": "[Compound 44, {4-[6-(3-Ethyl-ureido)-pyrido[2,3-b]pyrazin-3-yl]-2-methoxy-phenyl}-carbamic acid 2-[2-(2-methoxy-ethoxy)-ethoxy]-ethyl ester]", "values": [{"measurement": "melting point", "result": "> 330", "unit": "°C"}]}, {"smiles": "COc1cc(-c2ccc3ncc(NC(=O)Nc4ccc(N5CCN(C)CC5)cc4)nc3n2)ccc1O", "note": "[Compound 620, 1-[6-(4-Hydroxy-3-methoxy-phenyl)-pyrido[2,3-b]pyrazin-3-yl]-3-[4-(4-methyl-piperazin-1-yl)-phenyl]-urea]", "values": [{"measurement": "melting point", "result": "207 to 210", "unit": "°C"}]}]}
